According to patent publication US12066428B2, “Cell-substrate impedance monitoring of cancer cells” (Agilent Technologies, Inc., priority 2016, dated 2024):

How the values were obtained:
Format in all cases: cell-based, human
A549 cells [1] = assay: A549 target cells incubated with inhibitors alone (RT-CES control); details: A549 target cells without NK-92
Text: Inhibition of NK-mediated cytolysis of target cells by agents which block the signaling pathways leading to cytotoxicity. The interaction of NK receptors at the cell membrane by target cells leads to the activation of signal transduction machinery which results in cytolysis of target cells (Vivier et al., 2004). One of the key signaling cascades which regulate the fusion of perforin and granzyme containing secretory granules at the NK/target cell synaptic junction is the phosphatidyl-inositol-3-kinase (PI3K), Rac and mitogen activated protein kinase 1 (Erk) pathway (Djeu et al., 2002; Vivier et al., 2004). In order to determine the specificity of the signaling pathways in regulating NK-mediated cytotoxicity, we therefore sought to utilize specific inhibitors of the PI3K and Erk pathways. NK-92 cells were incubated with both the PI3K inhibitor Wortmannin and the Erk pathway inhibitor PD98059 or DMSO as a control and then added to A549 target cells. […] We calculated percent inhibition of cytolysis for both inhibitors at different time points after NK addition. […] In summary, the experiments shown here clearly establish that the RT-CES system can be used to monitor NK-mediated cytotoxic activity against a variety of different cell lines.

[2] = test system: NK-92-mediated cytolysis of A549 cells; assay: Inhibition of NK-92-mediated cytolysis by signaling pathway inhibitors (RT-CES); details: NK-92 pre-incubated with inhibitor, E/T 16:1
Method: Cytolytic analysis. Target cells were seeded into the wells of either 16-well or 96-well E-plate in 100 μL of media. Cell growth was dynamically monitored using the RT-CES system for a period of 24-34 hours, depending on the experiment until they reached log growth phase and formed a monolayer. Effector cells at different concentrations were then directly added into individual wells containing the target cells. For background control, effector cells were added to a well without target cells. After addition of the effector cells, the E-plate was returned to the e-plate station and the measurements were automatically collected by the analyzer every 15 minutes for up to 20 hours.
Data analysis. The integrated software is able to display entire history of the experiment from seeding the cells to termination of cytolysis. […] The cell index here is determined by calculating, for each measurement frequency f, the relative-change (Relative change (f)=(Rcell (f)−Rbackground(f))/Rbackground(f)) in resistance (a component of impedance) of a well when target cells are present in the well (Rcell (f)) with respect to background resistance (Rbackground) of the well when no cell is present and only cell culture medium is in the well, and then finding the maximum relative-change in resistance for all frequencies measured (Cell Index=max {Relative change (f)} for all measurement frequencies). […]

A549 cells [3] = assay: RT-CES dynamic monitoring of drug interaction with target cells; details: A549, highest concentration; cells later recover and re-proliferate
Method: Drug Treatment and Cytotoxicity Assessment.
In order to observe the kinetics of drug interaction with target cells, A549 non-small lung cancer cells were seeded in ACEA 96× E-plate™ and continuously monitored until the cells reached the log growth phase at which point different concentrations of paclitaxel were added to the cells at the indicated final concentration. […] While it remains to be determined if this phenomenon is due to metabolism and inactivation of paclitaxel or due to the emergence of paclitaxel-resistant subpopulation, this experiment clearly exemplifies the tremendous advantage of real-time measurement which is offered by the RT-CES system and allows the user to the opportunity to observe and assess the entire history of drug interaction with the target cells which provides further information in addition to cell viability or cytotoxicity. The phenomenon observed in FIG. 20A would've been easily missed by traditional single-point assays such as MTT.
Yet another major advantage of using the RT-CES system to continually monitor the interaction of drugs with target cells is that the user can obtain insight into the mechanism of action of the drug of interest. […]

H460 cells = assay: Time-dependent cell index of drug-treated cells (cell-substrate impedance)
Method: The device was positioned on a device station that was located in an incubator maintaining conditions of 37° C. and 5% CO2. The cells were cultured and treated at their exponential growth phase with different concentrations of paclitaxel. The dynamic response of the cells to different doses of paclitaxel was monitored by monitoring cell-substrate impedance in real time every 15 minutes for 50 hours after treatment using a cell-substrate impedance monitoring system. The cell-substrate impedance monitoring system calculated the cell index at each time point monitored and plotted the cell index as a function of time.
The device was positioned on a device station that was located in an incubator maintaining conditions of 37 degrees C. and 5% CO2.

SMILES | effect of inhibitor alone on A549 baseline (A549 cells [1]) | effect on NK-92-mediated cytolysis of A549 cells [2] | effect on A549 cells (Cell Index trace) (A549 cells [3]) | time over which cell index exhibited a near-constant value (H460 cells; H460, 33 nanomolar) | cell index response after compound addition (H460 cells; H460, concentrations between 67 nanomolar and 500 nanomolar)
COc1cccc(-c2cc(=O)c3ccccc3o2)c1N [PD98059] | minimal effect on the baseline | dose-dependently inhibited |  |  | 
CC(=O)O[C@H]1C(=O)[C@@]2(C)[C@H]([C@H](OC(=O)c3ccccc3)[C@]3(O)C[C@H](OC(=O)[C@H](O)[C@@H](NC(=O)c4ccccc4)c4ccccc4)C(C)=C1C3(C)C)[C@]1(OC(C)=O)CO[C@@H]1C[C@@H]2O [paclitaxel] |  |  | initially induces a cytotoxic effect | about 15 hours | gradual decrease in cell index after compound addition
